Assay results from article PMC8085340, “Inhibiting Pyridoxal Kinase of Entamoeba histolytica Is Lethal for This Pathogen” (Frontiers in Cellular and Infection Microbiology, 2021).

Biological target: T1, EhPLK (pyridoxal kinase) (Entamoeba histolytica, UniProt C4LVZ4)
T1 construct: gene EHI_126090; recombinant histidine-tagged EhPLK
T1 sequence (C4LVZ4 1-279): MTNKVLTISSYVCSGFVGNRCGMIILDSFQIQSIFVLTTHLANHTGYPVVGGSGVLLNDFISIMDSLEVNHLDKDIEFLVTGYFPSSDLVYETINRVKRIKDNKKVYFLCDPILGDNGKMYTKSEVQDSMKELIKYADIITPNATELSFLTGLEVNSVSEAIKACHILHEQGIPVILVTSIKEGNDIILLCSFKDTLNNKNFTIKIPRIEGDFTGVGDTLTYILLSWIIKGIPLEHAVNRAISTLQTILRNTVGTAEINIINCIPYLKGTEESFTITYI
Assay: spectrophotometric PLP formation assay at […] nm with purified enzyme; partial inhibition (maximum […])
Type: biochemical

| IC50 [µM] | Structure (SMILES) |
| --- | --- |
| ~100 | O=S1(=O)CCCN1c1ccc(Nc2ncnc3sccc23)cc1 [compound 2, N-[4-(1,1-dioxo-1,2-thiazolidin-2-yl)phenyl]thieno[2,3-d]pyrimidin-4-amine] |
| ~250 | O=S1(=O)CCCN1c1ccc(Nc2ncnc3ccsc23)cc1 [compound 1, N-[4-(1,1-dioxo-1,2-thiazolidin-2-yl)phenyl]thieno[3,2-d]pyrimidin-4-amine] |
